Assay results published in ChEMBL document CHEMBL4831554, “Diverse, Potent, and Efficacious Inhibitors That Target the EED Subunit of the Polycomb Repressive Complex 2 Methyltransferase” (J Med Chem, 2021).

Key:
[1] = Lipophilicity, logD of the compound in Octanol/phosphate buffer at pH 7.4 after 30 mins by shake-flask method; format: physicochemical
[2] = Intrinsic clearance in human liver microsomes at 1 uM preincubated with NADPH for 5 mins followed by compound addition and measured upto 30 mins by LC-MS/MS analysis; format: ADME, Microsome; details: read-out: CLH
[3] = Clearance in rat at 1 mg/kg, po or 0.5 mg/kg, iv; format: ADME, organism-based; details: in vivo
[4] = Volume of distribution at steady state in rat at 1 mg/kg, po or 0.5 mg/kg, iv; format: ADME, organism-based; details: in vivo, read-out: Vdss
[5] = Bioavailability in rat at 1 mg/kg, po or 0.5 mg/kg, iv; format: ADME, organism-based; details: in vivo
[6] = Intrinsic clearance in human hepatocytes assessed per million cells at 1 uM measured upto 30 mins by HPLC analysis; format: ADME, cell-based, Hepatocyte; details: read-out: CLH
[7] = Apparent permeability of compound in human Caco-2 cells; format: ADME, cell-based

Structure (SMILES) | logD at 0.5 h [1] | microsomal CLint at 1 µM [2] [µL/min/mg] | other results
Cc1ncccc1-c1cnc(NCc2c(F)ccc3c2CCO3)n2cnnc12 | 2.5 | 15 | clearance [3]: 19 mL/min/kg; Vd [4]: 3.7 L/kg; bioavailability [5]: 74%; hepatocyte CLint at 1 µM [6]: 2.6 µL/min/1e6 cells; Papp [7]: 38.7 10^-6 cm/s
Cc1ncccc1-c1cnc(NCc2c(F)ccc3c2CCO3)c2nn(CC#N)c(=O)n12 | 2.2 | 151 | 
O=C1Cc2ccccc2CN1c1cnc(NCc2c(F)ccc3c2CCO3)n2cnnc12 | 2.7 | 16 | 
O=C1Oc2ccccc2CN1c1cnc(NCc2c(F)ccc3c2CCO3)n2cnnc12 | 2.7 | 24 | 
O=C1c2ccccc2CN1c1cnc(NCc2c(F)ccc3c2CCO3)n2cnnc12 | 2.7 | 13 | hepatocyte CLint at 1 µM [6]: 2.7 µL/min/1e6 cells
CN(c1cn(C)cn1)c1cnc(NCc2c(F)ccc3c2CCO3)n2cnnc12 | 1.6 | 5.7 | 
CNC(=O)c1ccc(-c2cnc(NCc3c(F)ccc4c3CCO4)c3cn[nH]c(=O)c23)c(C)n1 | 2.9 | 23 | clearance [3]: 24 mL/min/kg; Vd [4]: 2.7 L/kg; bioavailability [5]: 53%; hepatocyte CLint at 1 µM [6]: 3 µL/min/1e6 cells; Papp ([7]; read-out: Papp): 54.1 ×10⁻⁶ cm/s
CN(C)Cc1ccc(C(=O)Nc2cnc(NCc3c(F)ccc4c3CCO4)n3cnnc23)cc1 | 1.8 | 13 | 
Cc1nccn1-c1cnc(NCc2c(F)ccc3c2CCO3)c2cn[nH]c(=O)c12 | 2.1 | 8 | 
Cc1nc(C(=O)N(C)C)ccc1-c1cnc(NCc2c(F)ccc3c2CCO3)c2cn[nH]c(=O)c12 | 2.1 | 19 | clearance [3]: 54 mL/min/kg; Vd [4]: 1.9 L/kg; bioavailability [5]: 22%; hepatocyte CLint at 1 µM [6]: < 1.3 µL/min/1e6 cells; Papp ([7]; read-out: Papp): 1.7 ×10⁻⁶ cm/s
CNC(=O)c1ncc(-c2cnc(NCc3c(F)ccc4c3CCO4)c3cn[nH]c(=O)c23)n1C | 2.5 | 24 | 
O=C1CCCN1c1cnc(NCc2c(F)ccc3c2CCO3)c2cn[nH]c(=O)c12 | 1.8 | 23 | 
O=C1CCCN1c1cnc(NCc2c(F)ccc3c2CCO3)n2cnnc12 | 1.3 | < 3 | 
CN(C)C(=O)c1cc(-c2cnc(NCc3c(F)ccc4c3CCO4)c3cn[nH]c(=O)c23)n(C)n1 | 2.1 | 21 | 
CN(c1ccncc1)c1cnc(NCc2c(F)ccc3c2CCO3)n2cnnc12 | 1.4 | 5.2 | 
CN(c1cnn(C)c1)c1cnc(NCc2c(F)ccc3c2CCO3)n2cnnc12 | 2.2 | 8.9 | 
Cc1ncc(-c2cnc(NCc3c(F)ccc4c3CCO4)c3cn[nH]c(=O)c23)n1C | 1.9 | 10 | 
Cn1nccc1-c1cnc(NCc2c(F)ccc3c2CCO3)c2cn[nH]c(=O)c12 | 2.6 | 14 | 
COc1ccccc1C(=O)Nc1cnc(NCc2c(F)ccc3c2CCO3)n2cnnc12 | 3.1 | 20 | 
CN(c1ccccc1)c1cnc(NCc2c(F)ccc3c2CCO3)n2cnnc12 | 3.6 | 55 | 
O=C(Nc1cnc(NCc2c(F)ccc3c2CCO3)n2cnnc12)c1ccccc1 | 3 | 10 | 
O=C1CC2(CC2)CN1c1cnc(NCc2c(F)ccc3c2CCO3)n2cnnc12 | 1.9 | < 3 | clearance [3]: 23 mL/min/kg; Vd [4]: 1.4 L/kg; bioavailability [5]: 68%; hepatocyte CLint at 1 µM [6]: 3.5 µL/min/1e6 cells
CN(C)Cc1ccc2c(c1)CN(c1cnc(NCc3c(F)ccc4c3CCO4)c3cn[nH]c(=O)c13)C2=O | 2.2 | 32 | 
Fc1ccc2c(c1CNc1ncc(Nc3ccccc3)c3nncn13)CCO2 | 3.3 | 20 | 
Cc1cc(-c2cnc(NCc3c(F)ccc4c3CCO4)c3cn[nH]c(=O)c23)n(C)n1 | 3 | 24 | 

Structure (SMILES) | logD at 0.5 h [1] | microsomal CLint at 1 µM [2] [µL/min/mg] | other results
Fc1ccc2c(c1CNc1ncc(Oc3ccccc3)c3nncn13)CCO2 | 3.5 | 18 | 
CN(c1ccn(C)n1)c1cnc(NCc2c(F)ccc3c2CCO3)n2cnnc12 | 1.8 | 11 | clearance [3]: 29 mL/min/kg; Vd [4]: 3 L/kg; bioavailability [5]: 67%; hepatocyte CLint at 1 µM [6]: < 1 µL/min/1e6 cells
C[C@H]1CC(=O)N(c2cnc(NCc3c(F)ccc4c3CCO4)n3cnnc23)C1 | 1.8 | < 3 | 
CN(c1ncco1)c1cnc(NCc2c(F)ccc3c2CCO3)n2cnnc12 | 2.1 | 11 | clearance [3]: 29 mL/min/kg; Vd [4]: 3.1 L/kg; bioavailability [5]: 61%; hepatocyte CLint at 1 µM [6]: 1.4 µL/min/1e6 cells
Cc1ncccc1-c1cnc(NCc2c(F)ccc3c2CCO3)c2cn[nH]c(=O)c12 | 3 | 41 | hepatocyte CLint at 1 µM [6]: 4.6 µL/min/1e6 cells
Cn1cc(-c2cnc(NCc3c(F)ccc4c3CCO4)c3cn[nH]c(=O)c23)cn1 | 2.7 | 21 | 
Cc1nc(CN(C)C)ccc1-c1cnc(NCc2c(F)ccc3c2CCO3)c2cn[nH]c(=O)c12 | 2 | 13 | Papp ([7]; read-out: Papp): < 0.6 ×10⁻⁶ cm/s
Cc1ncccc1-c1cnc(NCc2c(F)ccc3c2CCO3)c2n[nH]c(=O)n12 | 2.5 | 8 | 
CN(c1cccnc1)c1cnc(NCc2c(F)ccc3c2CCO3)n2cnnc12 | 2.6 | 80 | 
CNC(=O)c1cc(-c2cnc(NCc3c(F)ccc4c3CCO4)c3cn[nH]c(=O)c23)n(C)n1 | 2.1 | < 3 | 
O=C1c2cnccc2CN1c1cnc(NCc2c(F)ccc3c2CCO3)n2cnnc12 | 1.6 | 5 | 
CN(C)Cc1ccc2c(c1)CN(c1cnc(NCc3c(F)ccc4c3CCO4)n3cnnc13)C2=O | 1.6 | 19 | 
O=C(Nc1ccccc1)c1cnc(NCc2c(F)ccc3c2CCO3)n2cnnc12 | 4.1 | 14 | 
Cc1nn(C)cc1-c1cnc(NCc2c(F)ccc3c2CCO3)c2cn[nH]c(=O)c12 | 2.8 | 27 | 
Cc1ncccc1-c1cnc(NCc2c(F)ccc3c2CCO3)n2c(=O)[nH]nc12 | 3 | 36 | 
Cc1nc(CO)ccc1-c1cnc(NCc2c(F)ccc3c2CCO3)c2cn[nH]c(=O)c12 | 2.4 | 11 | 
O=C1c2ccc(OCCN3CCCC3)cc2CN1c1cnc(NCc2c(F)ccc3c2CCO3)n2cnnc12 | 1.6 | 18 | clearance [3]: 35 mL/min/kg; Vd [4]: 6.5 L/kg; Papp ([7]; read-out: Papp): < 0.6 ×10⁻⁶ cm/s
CN(c1ccn(C)n1)c1cnc(NCc2c(F)ccc3c2CCO3)c2cn[nH]c(=O)c12 | 2.4 | 62 | 
CC(=O)N1CCC(c2cnc(NCc3c(F)ccc4c3CCO4)c3cn[nH]c(=O)c23)CC1 | 2.9 | 207 | 
C[C@@H]1CC(=O)N(c2cnc(NCc3c(F)ccc4c3CCO4)n3cnnc23)C1 | 1.8 | < 3 | 
CC1(C)CC(=O)N(c2cnc(NCc3c(F)ccc4c3CCO4)n3cnnc23)C1 | 2 | 16 | 
O=C(Nc1cnc(NCc2c(F)ccc3c2CCO3)n2cnnc12)c1cccnc1 | 2 | < 3 | 
Cc1ncccc1-c1cnc(NCc2c(F)ccc3c2CCO3)c2ncc(=O)[nH]c12 | 2.8 | 21 | 
COCCC(=O)Nc1cnc(NCc2c(F)ccc3c2CCO3)n2cnnc12 | 1.4 | < 3 | 
CN(C(=O)c1ccccc1)c1cnc(NCc2c(F)ccc3c2CCO3)n2cnnc12 | 2.4 | > 300 | 
